# Experimental data published in PMC3499775 (Journal of pharmaceutical and biomedical analysis, 2012).
# Target: T1, breast cancer resistance protein (BCRP) (Homo sapiens, UniProt Q9UNQ0)
# T1 sequence (Q9UNQ0 1-655): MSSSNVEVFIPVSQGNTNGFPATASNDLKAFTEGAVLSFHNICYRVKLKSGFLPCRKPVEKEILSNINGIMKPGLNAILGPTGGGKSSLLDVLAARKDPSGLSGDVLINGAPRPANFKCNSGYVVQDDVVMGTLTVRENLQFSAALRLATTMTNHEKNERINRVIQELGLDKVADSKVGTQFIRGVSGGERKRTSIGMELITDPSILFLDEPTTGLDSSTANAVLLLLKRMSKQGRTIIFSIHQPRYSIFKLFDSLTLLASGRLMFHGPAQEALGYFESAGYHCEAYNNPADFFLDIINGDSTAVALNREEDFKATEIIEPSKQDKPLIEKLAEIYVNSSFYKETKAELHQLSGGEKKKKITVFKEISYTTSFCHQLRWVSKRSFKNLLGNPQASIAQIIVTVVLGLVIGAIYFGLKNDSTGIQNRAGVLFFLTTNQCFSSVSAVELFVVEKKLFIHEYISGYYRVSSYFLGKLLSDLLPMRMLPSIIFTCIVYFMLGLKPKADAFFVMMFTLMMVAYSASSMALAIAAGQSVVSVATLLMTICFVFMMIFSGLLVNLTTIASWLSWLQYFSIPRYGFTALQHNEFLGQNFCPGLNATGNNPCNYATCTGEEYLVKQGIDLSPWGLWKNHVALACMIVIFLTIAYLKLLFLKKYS
# Test: frontal displacement affinity chromatography
# Type: binding
# Conditions: nmac-bcrp column
row,Compound,Kd [nM]
1,COc1ccc(-c2coc3cc(O)cc(O)c3c2=O)cc1 [Biochanin A],1050
2,COc1cc([C@@H]2c3cc4c(cc3[C@@H](O[C@@H]3O[C@@H]5CO[C@@H](C)O[C@H]5[C@H](O)[C@H]3O)[C@H]3COC(=O)[C@H]23)OCO4)cc(OC)c1O [Etoposide],4550
3,"COc1ccc2c3c([nH]c2c1)[C@H](C=C(C)C)N1C(=O)[C@@H]2CCCN2C(=O)[C@@H]1C3 [FTC, Fumitremorgin C]",1630
